We go through one compound from patent US20240228659A1, “NEW METHOD TO IMPROVE NK CELLS CYTOTOXICITY” (INSERM (INSTITUT NATIONAL DE LA SANTÉ ET DE LA RECHERCHE …, priority 2021, published 2024).

Common to all, as to type: in vivo, mouse
For assay [1], the system named is NXS2 cells. The experiment in a line: murine NXS2 neuroblastoma experimental liver metastasis model in A/J mice. The conditions noted are these: FIG. 1B; 8 mice/group; day 27 after i.v. NXS2 inoculation; 8B6 25 μg i.v. twice weekly x3 weeks; 13-cis-RA 10 mg/kg per os. The procedure:
FIG. 1. 13-cis-Retinoic acid enhances anti-neuroblastoma activity of anti-O-acetylated GD2 ganglioside in vivo. (A) Mice (8 animal/group) were inoculated with 2.5×10^5 NXS2 cells by i.v. injections on day 0. Antibody 8B6 treatment was performed on days 3, 7, 10, 14, 17, and 21 (cumulative dose=150 μg). 13-cis-retinoic acid treatment was given at 10 mg/kg, per os, five times weekly, day 17 to 21. Mice were euthanized 27 days post-tumor cell inoculation. (B) Anti-tumor efficacy was evaluated by determining the number of liver metastasis. Mean liver metastasis number±SEM of each treatment group, as depicted (** p<0.01; Mann-Whitney test). (C) The mice body weight was recorded for each treatment group, as indicated. Mean weight (mean±SEM, n=8) of mice on day 0 was defined as 100% weight. Weight in each group remained stable for the period of the treatment.
FIG. 4. […] (B) Anti-tumor efficacy was evaluated by determining the liver metastasis on fresh specimen. […] (C) The mice body weight was recorded for each treatment group, as indicated. […]
The anti-neuroblastoma efficacy of mAb 8B6 and chemotherapeutic treatments was determined in the murine NXS2 neuroblastoma experimental liver metastasis model in A/J mice, previously described (28). […] Mice were euthanized on day 27 post-tumor challenge, and anti-tumor efficacy was evaluated by determining the number of liver metastasis.

Assay [2] deals with PD-L1. The experiment in a line: PD-L1 tumor cell surface expression, flow cytometry of dissociated liver metastasis. The conditions noted are these: FIG. 2B; residual liver metastasis; untreated mice 31.3±7.19%. The procedure: FIG. 2. Effect of retinoic acid alone or in combination with 8B6 therapy on O-acetyl-GD2 and PD-L1 expression in vivo. Tumor cells harvested from the indicated group were stained with either OAcGD2-specific mAb (A) or PD-L1-specific mAb (B). (A) Flow cytometry analysis was performed with single cell suspension obtained from the liver metastasis harvested from mice in FIG. 1 to assess the OAcGD2 expression, as indicated. […] The level of OAcGD2 expression remains stable after treatments (ns, not significant; p>0.5). (B) Single cell suspension from (A) were also tested for PD-L1 tumor cell surface expression, as indicated. The left panel indicates the percentage of PD-L1 positive tumor cells. […]
(§1) For flow cytometry analysis, cells were first incubated with a mAb specific for mouse CD16/CD32 to prevent nonspecific binding of primary antibodies against FcγR, and then, were labeled with specific conjugated mAbs. […] Quantification of total cell numbers by flow cytometry was performed done using fluorescent beads (C36950, Thermo Fisher, Waltham, MA, USA). Flow cytometric analysis were performed using an BD FACSCanto II (BD Bioscience) and data were analyzed using FlowJo software (Flowjo LLC, Oregon, OR, USA). The fold increase of tumor NK cell infiltration was calculated by dividing the number of NK cell infiltrated of each condition by the mean of the number of NK cell.
Background: In flow cytometry, cells or beads pass a laser one at a time.

Assay [3] has as its system CD45+NKp46+CD3− NK cells. The experiment in a line: tumor NK cell infiltration, flow cytometry. The conditions noted are these: FIG. 3B; PBS control 0.88±0.2%.
Text: FIG. 3. 13-cis-Retinoic acid combined with mAb 8B6 increases PD-1+NK cell tumor infiltration. (A) Dot plots histograms showing the gating strategy used for flow cytometric identification of CD45+NKP46+CD3− NK cells in tumor cells. (B) Fold increase of total count of NK cells in tumor cells were achieved by flow cytometry of cells gated, as indicated. […] (C) Percentage of PD-1+NK cells in tumor cells from the indicated group.
Liver metastasis were dissociated with the mouse tumor dissociation kit and the gentle MACS dissociator (Miltenyi) according to the manufacturer's instructions. Single cell suspensions were obtained by passing through a 70 μm pore-size cell MACS SmartStrainer (Miltenyi). […]
as §1

For the compound `CC1=C(/C=C/C(C)=C/C=C/C(C)=C\C(=O)O)C(C)(C)CCC1` [13-cis-RA, 13-cis-retinoic acid], the “number of liver metastasis (mean±SEM)” value in assay [1] is 14.40±0.98. For the same compound, the “percentage of PD-L1+ tumor cells” value in assay [2] turned out to be 39.45±9.76%. In addition, the “intratumoral CD45+NKp46+CD3− NK cells” value in assay [3] is listed as 2.49±0.29%.
